Patent US11673894B2, “Imidazopyrimidines and triazolopyrimidines as A2A / A2B inhibitors” (Incyte Corporation, priority 2018, dated 2023)

Columns and labels:
Adenosine A2A receptor = Adenosine A2A receptor (Homo sapiens (Human), UniProt P29274); experiment: A2A Tag-lite HTRF Assay; conditions: Tag-lite Adenosine A2A labeled cells; A2A Receptor Red antagonist fluorescent ligand 12.5 nM; one-site competitive binding model; read-out: A2A_Ki
Source text: The final concentration of DMSO was 1%.

[1] = target: human adenosine A2B receptor (Homo sapiens (Human), UniProt P29275); experiment: Adenosine A2B Receptor Cyclic AMP GS Assay; assay type: cell-based; conditions: HEK-293 cells expressing human A2B receptor; agonist NECA at 12 nM; cAMP accumulation (FRET); read-out: A2B_cAMP_EC50
Summary of the method: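 HEK-293 cells stably expressing human A2B receptor were pretreated 30 min at room temperature with compound, then stimulated with 12 nM NECA for 60 min. cAMP accumulation was measured by HTRF (665/620 ratio). Values were fitted from percent of control versus log concentration.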

human adenosine A2B receptor, sequence (P29275 whole entry): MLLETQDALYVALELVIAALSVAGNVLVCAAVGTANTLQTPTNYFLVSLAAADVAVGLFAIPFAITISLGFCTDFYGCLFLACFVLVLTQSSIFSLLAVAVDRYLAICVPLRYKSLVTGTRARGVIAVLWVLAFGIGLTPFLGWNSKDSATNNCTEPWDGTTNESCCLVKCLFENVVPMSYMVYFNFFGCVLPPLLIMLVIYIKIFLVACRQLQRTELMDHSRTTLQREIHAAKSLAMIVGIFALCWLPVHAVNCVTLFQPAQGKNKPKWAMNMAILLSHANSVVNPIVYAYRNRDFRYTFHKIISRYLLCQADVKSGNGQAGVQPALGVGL
Adenosine A2A receptor, sequence (P29274 whole entry): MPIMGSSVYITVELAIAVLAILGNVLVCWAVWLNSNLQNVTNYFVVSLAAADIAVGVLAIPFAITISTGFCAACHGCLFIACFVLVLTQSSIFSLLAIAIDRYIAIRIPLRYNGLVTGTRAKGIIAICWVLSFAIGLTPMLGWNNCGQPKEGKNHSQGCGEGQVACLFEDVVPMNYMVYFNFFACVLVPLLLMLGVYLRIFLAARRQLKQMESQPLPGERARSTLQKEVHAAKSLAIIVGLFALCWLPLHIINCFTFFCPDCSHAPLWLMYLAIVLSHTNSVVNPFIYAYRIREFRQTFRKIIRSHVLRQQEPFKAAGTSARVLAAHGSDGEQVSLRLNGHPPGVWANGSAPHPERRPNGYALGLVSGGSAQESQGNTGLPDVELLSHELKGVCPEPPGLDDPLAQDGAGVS

Structure (SMILES) | Ki (Adenosine A2A receptor) [µM] | EC50 [1] [µM]
CCNC(=O)c1nc2c(-c3cc(C)nc(C)c3)c(-c3ccccc3)nc(N)n2c1C#N [Example 21, 5-Amino-3-cyano-8-(2,6-dimethylpyridin-4-yl)-N-ethyl-7-phenylimidazo[1,2-c]pyrimidine-2-carboxamide] | < 0.01 | > 1
CCNC(=O)c1cn2c(N)nc(-c3cccc(C#N)c3)c(-c3cnn4ccccc34)c2n1 [Example 33, 5-Amino-7-(3-cyanophenyl)-N-ethyl-8-(pyrazolo[1,5-a]pyridin-3-yl)imidazo[1,2-c]pyrimidine-2-carboxamide] | < 0.01 | 0.1 to 1
CCNC(=O)c1cn2c(N)nc(-c3cccc(C#N)c3)c(-c3cn[nH]c3C)c2n1 [Example 34, 5-Amino-7-(3-cyanophenyl)-N-ethyl-8-(5-methyl-1H-pyrazol-4-yl)imidazo[1,2-c]pyrimidine-2-carboxamide] | < 0.01 | < 0.01
COCc1nc(C)oc1-c1c(-c2cccc(C#N)c2)nc(N)n2nc(Cc3ccccn3)nc12 [Example 63, 3-(5-Amino-8-(4-(methoxymethyl)-2-methyloxazol-5-yl)-2-(pyridin-2-ylmethyl)-[1,2,4]triazolo[1,5-c]pyrimidin-7-yl)benzonitrile] | < 0.01 | < 0.01

The next lines start with the values.

Ki (Adenosine A2A receptor) [µM] | EC50 [1] [µM] | Structure (SMILES)
< 0.01 | 0.01 to 0.1 | N#Cc1cccc(-c2nc(N)n3nc(Cc4c(F)cccc4CN4C[C@@H](O)[C@H](F)C4)nc3c2-c2ccncn2)c1 [Example 72, 3-(5-Amino-2-(2-fluoro-6-(((3R,4R)-3-fluoro-4-hydroxypyrrolidin-1-yl)methyl)benzyl)-8-(pyrimidin-4-yl)-[1,2,4]triazolo[1,5-c]pyrimidin-7-yl)benzonitrile]
< 0.01 | < 0.01 | N#Cc1cccc(-c2nc(N)n3nc([C@@H](O)c4ccccc4)nc3c2-c2ccncn2)c1 [Example 64, (S)-3-(5-amino-2-(hydroxy(phenyl)methyl)-8-(pyrimidin-4-yl)-[1,2,4]triazolo[1,5-c]pyrimidin-7-yl)benzonitrile]
